Experimental data reported in patent US8148392B2, “2-indolyl imidazo [4,5-d] phenanthroline derivatives and their use in the treatment of cancer” (Lorus Therapeutics Inc., priority 2005, dated 2012).
Entries after “also recorded” stand apart in the source; their conditions may differ.

Tests used:
[1] = test system: human lung NCI-H460 cells; test: Large-cell lung carcinoma NCI-H460 xenograft model, tumour growth; format: in vivo, CD-1 female nude mice; conditions: for tumour size and weight: Lutrol (i.p.), lipid-based (i.v.) or water-based (i.p.) formulations
Procedure: The ability of compounds of Formula I to inhibit large-cell lung tumour growth in vivo was tested by determining the efficacy of compound 3 in a xenograft model as described below. Compound 3 was tested as a lipid-based formulation having the following composition: distearoylphosphatidylethanolamine-polyethylene glycol 2000 (DSPE-PEG/5% mole) and egg phosphatidylcoline (ePC/95% mole). The formulation was prepared as follows: Stock solutions of compound 3 and lipid (ePC and DSPE-PEG) were prepared in DMF. Specific volumes of the stock solutions of compound 3 and lipid were then mixed in order to achieve a final lipid concentration of 25 mg/mL (ePC:DSPE-PEG=95:5 (mol %) and a compound 3 to total lipid ratio of 1:10 (w/w). The mixture was stirred for four hours, thoroughly dried under nitrogen and left overnight under vacuum. HEPES buffer saline (HBS 0.01 M, pH=7.4) warmed to 60° C. was then added in order to rehydrate the dried film. The solutions were vortexed, stirred for 48 hours at room temperature and sonicated for two and half hours. The formulation was then centrifuged at 1000 rpm for 5 minutes to remove any free compound 3.
CD-1 female nude mice (6-7 weeks, 7 mice per treatment group) were injected […] with human lung NCI-H460 cells (3×10^6 cells in 0.1 ml PBS) subcutaneously. Treatment of the mice with vehicle or compound 3 was initiated 5 days post-inoculation (size of tumours=20-40 mm^3) for 7-day cycles of five days followed by a 2 day break for the duration of the experiment (35 days). Mice were treated with 80 mg/kg/d for the first week followed by 40 mg/kg/d until the end of the experiment. The size of the tumours was measured over the course of the experiment using calipers, and the weight of the tumours was measured after the animals were sacrificed.
The ability of compounds 3, 5, and 7 to inhibit large-cell lung carcinoma cell growth in vivo was tested in the mouse xenograft model as described in Example 27. The compounds were tested as Lutrol formulations (administered i.p.), lipid-based formulations micelles (administered i.v.), or water-based formulations (administered i.p.). The vehicle controls included Lutrol control (administered i.p.), lipid micelle control (administered i.v.), and water control (administered i.p.). Lutrol formulations contained 15% Lutrol and 10% DMSO. The composition of the lipid-based formulations and preparation of same was as described in Example 27 above.

[2] = test system: MTF-1; test: MTF-1 mRNA in HT-29 tumour xenografts, RT-PCR; format: in vivo, CD-1 athymic nude mice; conditions: HT-29 xenograft, versus vehicle
Procedure: Correlation between zinc-sensitive transcription factor MTF-1 and a cell cycle regulator Cyclin D1 expression in HT-29 colon cancer xenograft tissues is shown in FIG. 30. Based on the presence of putative MTF-1-binding DNA sequences in Cyclin D1 gene promoter region (shown in FIG. 30A), expression levels of MTF-1 and Cyclin D1 in xenograft tissues were examined by RT-PCR, using tissue RNA extract.
The tumor regression efficacy of compound 3 was assessed in compound 3-treated HT-29-transplanted athymic mice (FIG. 54A), and correlated with gene expressions of MTF-1, KLF4 and Cyclin D1 in HT-29 xenograft tissues (FIG. 54B). CD-1 athymic nude mice (4 per group) were injected subcutaneously with HT-29 cells (3×10^6 cells in 0.1 mL PBS). At 5 days after tumor cell inoculation, the mice were intra-peritoneally injected with 200 μL vehicle control or 100 mg/kg compound 3, for 5 days followed by 10 days interval, for 2 cycles (day 5 to 9 as a first cycle injection and day 20 to 24 as a second cycle injection). The tumor size was measured during the course of treatment using calipers (FIG. 54A). The mice were sacrificed at 34 days after tumor cell inoculation. The tumor tissues were excised, frozen immediately and stored at −80° C. until RNA extraction and gene expression was analyzed by RT-PCR (FIG. 54B). […]

[3] = test system: p21 (cyclin-dependent kinase inhibitor); test: p21 mRNA expression in HT-29 cells, real-time PCR; format: cell-based, human; conditions: HT-29, 1 μM, after 4 hr
Procedure: The effect of compounds of Formula I on the expression of genes regulated by KLF4 was determined as follows. Compound 3 was tested to determine its ability to increase the expression of the cell cycle regulator p21 (cyclin-dependent kinase inhibitor) in HT-29 colon carcinoma cells. […] HT-29 cells were incubated with DMSO (vehicle control), 35 μM ZnCl2, 1 μM or 4 μM TPEN, or 0.5 μM, 1 μM, 4 μM, or 7.5 μM compound 3 for 16 hours, and mRNA was extracted from the cells. The expression of p21 mRNA was analyzed by real-time polymerase chain reaction using the comparative CT method. This assay was carried out using methods described in Example 19.
The expressions of p21 gene and proteins were examined following treatment with compound 3. Gene expression of p21 in HT-29 cells treated with 1 μM compound 3 was determined at the indicated times as follows. Total RNA was extracted and gene expression level was determined by RT-PCR (FIG. 42A). The level of p21 protein in total cell lysate was measured by ELISA (FIG. 42B) as follows. HT-29 cells were treated with 1 μM compound 3 with and without 20 μM MG-132 (proteasome inhibitor) for indicated time.

[4] = PAR metal binding assay, zinc; format: physicochemical; conditions: pH 7.5, 200 μM PAR
Procedure: (§1) Results are shown in FIGS. 28A (ZnCl2), 28B (CuCl2) and 28C (FeCl2). In vitro 4-(2-pyridylazo) resorcinol (PAR) zinc binding assay was performed as follows. In triplicate wells of 96-well plate (Sarstedt, Newton, N.C.), 10 μL volume of indicated final concentrations of ZnCl2 in 0.2M Tris-HCl, pH 7.5 was incubated with 10 μL of 80% acetonitrile-20% DMSO vehicle control or indicated final concentrations of the compounds of Formula I, dissolved in 80% acetonitrile-20% DMSO, for 15 min at room temperature. Then, 80 μL of PAR at final concentration of 200 μM in 0.2M Tris-HCl, pH 7.5 was added and the color development of PAR-Zn^2+ complex was measured by a multi-well spectrophotometer (Bio-Tek Instruments Inc.) at 500 nm.
(§2) Metal chelation property of compound 64 and the relative affinity on different metal ions were evaluated and compared with the effect of compound 3 in vitro using 4-(2-pyridylazo) resorcinol (PAR) colorimetric zinc assay utilizing methodology as described above in the preceding Examples. Indicated final concentrations of ZnCl2 (FIG. 56A), CuCl2 (FIG. 56B) or FeCl2 (FIG. 56C) were incubated with 80% acetonitrile-20% DMSO vehicle control or 200 μM of the compounds of Formula I. The color development of PAR-metal ion complex was measured by a multi-well spectrophotometer at 500 nm.

[5] = PAR metal binding assay, copper; format: physicochemical; conditions: pH 7.5, 200 μM PAR
Procedure: as §1, §2

[6] = PAR metal binding assay, iron; format: physicochemical; conditions: 200 μM compound
Procedure: as §1, §2

SMILES	tumour size and weight [1]	MTF-1 expression in tumour xenografts [2]	p21 gene expression, change [3]	tumour growth (size and weight) ([1]; lipid-based formulation, 80 mg/kg/d first week then 40 mg/kg/d, 35 days)	MTF-1 expression in tumour xenografts ([2]; listed as compound 3)	Zn binding to PAR (PAR-Zn2+ absorbance at 500 nm) [4]	Cu+2 binding to PAR (PAR-Cu2+ absorbance at 500 nm) [5]	color development of PAR-Fe2+ [6]
Cc1[nH]c2ccc(F)cc2c1-c1nc2c3cccnc3c3ncccc3c2[nH]1 [Compound 7]	able to decrease the size (FIG. 16A) and weight (FIG. 16B) of tumours	Decreased MTF-1 expression						
Cc1[nH]c2ccccc2c1-c1nc2c3cccnc3c3ncccc3c2[nH]1 [Compound 3]	able to decrease the size (FIG. 16A) and weight (FIG. 16B) of tumours		Increased gene expression of p21	able to inhibit large-cell lung tumour growth	Decreased MTF-1 expression; also recorded: decrease in MTF-1 and Cyclin D1 gene expressions	attenuated; also recorded: eliminated	attenuated; also recorded: eliminated	minimally affected
CCc1cccc2c(-c3nc4c5cccnc5c5ncccc5c4[nH]3)c(C(C)(C)C)[nH]c12 [Compound 64]						eliminated	eliminated	minimally affected
